Measurements taken from US10421971B2, “Anti-tumor therapy” (The University of Chicago, priority 2014, dated 2019).

Tests used:
[1] = test system: tumor-specific CD8+ T cells; assay: ELISPOT of tumor-specific IFN-γ-secreting CD8+ T cells from tumor draining lymph nodes after radiation; assay type: in vivo, mouse
Experimental: (§1) 1×10^6 MC38 tumor cells were subcutaneously injected into the flank of mice. Tumor volumes were measured along three orthogonal axes (a, b, and c) and calculated as tumor volume=abc/2. Tumors were allowed to grow for 9-10 days and treated by local radiation (Deng et al., 2014). Briefly, the body was protected with a lead cover and the tumor was exposed, allowing local radiation. Tumors were irradiated using RS-2000 Biological Irradiator (RAD SOURCE) at the dose of 20 Gy with 160 kV and 25 mA. For type I IFN blockade experiments, 200 μg anti-IFAR1 mAb was intratumorally injected on day 0 and 2 after radiation. For HMGB-1 blockade experiments, 200 μg anti-HMGB-1 mAb (clone 3B1, generated by inventors) was administered i.p. on day 0 and 3 after radiation. For CD8^+ T cell depletion experiments, […] anti-CD8 mAb (Clone 2.43, BioXCell) was delivered 5 times by i.p. injection every three days starting one day before radiation. For exogenous IFN-β treatment experiments, 1×10^10 viral particles of Ad-IFN-β (Burnette, B., et al., The Efficacy of Radiotherapy Relies upon Induction of Type I Interferon-Dependent Innate and Adaptive Immunity, Cancer Res Apr. 1, 2011 71; 2488; (doi: 10.1158/0008-5472.CAN-10-2820)) were intratumorally administered on day 2 after radiation. Ad-null was used as negative control. […]

[2] = test system: MC38 tumors; assay: MC38 tumor growth after local radiation in mice; assay type: in vivo, mouse; conditions: 20 Gy, 10 μg intratumorally on day 2 and 6 after radiation, FIG. 21A, 21B
Experimental: as §1

[3] = test system: BMDCs; assay: BMDC cross-priming of 2C CD8+ T cells after stimulation with irradiated MC38-SIY tumor cells (IFN-γ ELISPOT); assay type: cell-based, mouse
Experimental: Single-cell suspensions of bone marrow cells were obtained from C57BL/6J, STING^−/− and IRF3^−/− mice. Bone marrow from cGAS^−/− mice was kindly provided by Dr. Zhijian J. Chen of University of Texas Southwestern Medical Center, Dallas. The cells were placed in 10 cm petri dish and cultured in RPMI-1640 medium containing 10% fetal bovine serum (DENVILLE), supplemented with 20 ng/ml GM-CSF. Fresh media with GM-CSF was added into culture on day 3. BMDCs (bone marrow-derived dendritic cells) were harvest for stimulation assay on day 7. 8×10^6 MC38-SIY^hi cells were plated into 10 cm cell culture dishes overnight, and then pretreated with 40 Gy and incubated for 5 hours. BMDCs were added and co-cultured with MC38-SIY^hi cells at the ratio of 1:1 in the presence of fresh GM-CSF for additional 8 hours. Subsequently purified CD11c cells with EasySep™ Mouse CD11c Positive Selection Kit II (STEMCELL) were incubated with isolated CD8^+ T cells from naive 2 C mice for three days. For the bypassing assay, 10 ng/ml murine IFN-β was added in the co-culture of BMDCs and tumor cells, or 100 μg/ml DMXAA was added into isolated CD11c^+ cells with additional 3 h incubation. For IFN-β detection, BMDCs were co-cultured with tumor cells at the ratio of 1:1 for additional 8 hours, and 1×10^6 cells/ml purified CD11c^+ cells were seed into 96-well plates for 48 hours.
For bone-marrow CD11c^+ cells functional assay, 2×10^4 purified CD11c^+ cells with were incubated with isolated CD8^+ T cells from naive 2 C mice with EasySep™ Mouse CD8a Positive Selection Kit (STEMCELL) for three days at the ratio of 1:10. For tumor-specific CD8^+ T cells functional assay, eight days after radiation, tumor DLNs were removed and CD8^+ T cells were purified. MC38 tumor cells were exposed to 20 ng/ml murine IFN-γ for 24 hr prior to plating with purified CD8^+ T. 2×10^5 CD8^+ T cells were incubated with MC38 at the ratio of 10:1 for 48 hours. 96-well HTS-IP plate (Millipore) was pre-coated with 2.5 μg/ml anti-IFN-γ antibody (clone R4-6A2, BD Pharmingen) overnight at 4° C. […]

[4] = test system: IFNβ promoter; assay: IFNβ promoter dual-luciferase reporter assay (IFNβ-Luc / pRL-SV40) in HEK293 cells; assay type: cell-based, human; conditions: versus shNT, FIG. 6A
Source text: To measure IFNβ promoter activity, HEK293 cells were transiently co-transfected using Fugene (Roche) with pGL3-Ifnβ-Luc (Lin R, Genin P, Mamane Y, & Hiscott J (2000) Selective DNA binding and association with the CREB binding protein coactivator contribute to differential activation of alpha/beta interferon genes by interferon regulatory factors 3 and 7. Molecular and cellular biology 20(17):6342-6353) and an expression plasmid carrying the Renilla luciferase gene driven by the SV40 promoter (Promega). […] The following day, cells were irradiated at indicated dose and collected at indicated time in passive lysis buffer (Promega). Firefly and Renilla luciferase activities were measured using a dual-luciferase assay system (Promega). For siRNAs experiments, siRNA against LGP2 (see above) or non-targeting (Dharmacon) were transfected with RNAimax 24 h prior to transfection of luciferase/Renilla plasmids. Mean luciferase values were normalized and quantified from duplicate runs for each of at least three separate experiments.
We next assessed the role of LGP2 in regulating the IR-induced IFNβ response. HEK293 cells were transduced with lentiviral shRNA to stably reduce the levels of LGP2 or control non-targeting (shNT). Stably transduced cells were co-transfected with IFNβ-Luc and pRL-SV40, mock-treated or exposed to 6 or 12 Gy and collected 72 hrs after IR.

Nc1nc2c(ncn2[C@@H]2O[C@@H]3COP(=O)(O)O[C@H]4[C@@H](O)[C@H](n5cnc6c(N)ncnc65)O[C@@H]4COP(=O)(O)O[C@@H]2[C@@H]3O)c(=O)[nH]1 [2′3′-cGAMP, cyclic [G(2′,5′)pA(3′,5′)p]]
antitumor CD8+ T cell response induced by the combination with radiation ([1]; STING−/− host, FIG. 21D): dampened
number of tumor-specific IFN-γ-producing CD8+ T cells in DLNs, combination with radiation ([1]; WT mice, 10 μg intratumorally on day 2 after 20 Gy, DLNs day 8, versus radiation or 2′3′-cGAMP alone, FIG. 21C): significantly increased
synergy with radiation on tumor burden ([2]; STING−/− mice): abrogated
tumor burden, combination with radiation ([2]; WT mice, versus either treatment alone): effectively reduce tumor burden

Cc1ccc2c(=O)c3cccc(CC(=O)O)c3oc2c1C [DMXAA]
function of STING−/− BMDCs (cross-priming of CD8+ T cells) ([3]; STING−/− BMDCs stimulated with irradiated tumor cells, 10 ng/ml IFN-β or 100 μg/ml DMXAA, FIG. 18C): fails to rescue
function of cGAS−/− BMDCs (cross-priming of CD8+ T cells) ([3]; cGAS−/− BMDCs stimulated with irradiated tumor cells, 10 ng/ml IFN-β or 100 μg/ml DMXAA, FIG. 19D): restored

LGP2 shRNA: lentiviral pLKO.1 shRNA against LGP2, SEQ ID NO:3 ATTCTTGCGGTCATCGAACAG, Thermo Scientific
IR-induced IFNβ reporter activity ([4]; HEK293, 6 or 12 Gy, 72 hrs after IR): greatly increased
IFNβ reporter activity ([4]; HEK293, mock-treated): significant increase

siRNA-cGAS: Mission siRNA against murine cGAS, 5′-GAGGAAAUCCGCUGAGUCAdTdT-3′ (SEQ ID NO:8), Sigma (GAGGAAAUCCGCUGAGUCADTDT; dTdT 3' overhang, further chemistry not given here)
function of DCs (cross-priming of CD8+ T cells) ([3]; BMDCs transfected with 50 nM siRNA, versus non-target control, stimulated with irradiated tumor cells, FIG. 19B): greatly diminished
